Experimental data: ChEMBL document CHEMBL5143548, “Morphinan derivatives with an oxabicyclo[3.2.1]octane structure as dual agonists toward δ and κ opioid receptors” (Bioorg Med Chem, 2022)

How the values were obtained:
Mu-type opioid receptor [1] = target: T1, Mu-type opioid receptor (Homo sapiens, UniProt P35372); experiment: Displacement of [3H]-DAMGO from recombinant human MOR expressed in CHO cell membranes measured after 2 hrs by microbeta scintillation counting method; design: species or system Membrane
[2] = target: T2, Delta-type opioid receptor (Homo sapiens, UniProt P41143); experiment: Displacement of [3H]-DPDPE from recombinant human DOR expressed in CHO cell membranes measured after 2 hrs by microbeta scintillation counting method; design: species or system Membrane
[3] = target: T3, Kappa-type opioid receptor (Homo sapiens, UniProt P41145); experiment: Displacement of [3H]-U-69593 from recombinant human KOR expressed in CHO cell membranes measured after 2 hrs by microbeta scintillation counting method; design: species or system Membrane
Homo sapiens [4] = organism: Homo sapiens; experiment: Selectivity ratio of Ki for displacement of [3H]-DAMGO from recombinant human MOR expressed in CHO cell membranes to Ki for displacement of [3H]-U-69593 from recombinant human KOR expressed in CHO cell membranes
Homo sapiens [5] = organism: Homo sapiens; experiment: Selectivity ratio of Ki for displacement of [3H]-DPDPE from recombinant human DOR expressed in CHO cell membranes to Ki for displacement of [3H]-U-69593 from recombinant human KOR expressed in CHO cell membranes
Mu-type opioid receptor [6] = target: T1, Mu-type opioid receptor; experiment: Agonist activity at human mu opioid receptor expressed in CHO cell membranes assessed as stimulation of [35S]GTPgammaS binding incubated for 2 hrs by scintillation counting method; design: species or system Membrane
mu opioid receptor (MOR) = mu opioid receptor (MOR) (Homo sapiens, UniProt P35372); experiment: Agonist activity at human mu opioid receptor expressed in CHO cell membranes assessed as stimulation of [35S]GTPgammaS binding incubated for 2 hrs by scintillation counting method relative to DAMGO; design: species or system Membrane; settings: CHO cell membranes expressing human mu opioid receptor, probe [35S]GTPgammaS
[7] = target: T2, Delta-type opioid receptor; experiment: Agonist activity at human delta opioid receptor expressed in CHO cell membranes assessed as stimulation of [35S]GTPgammaS binding incubated for 2 hrs by scintillation counting method; assay type: functional, Membrane
[8] = target: T2, Delta-type opioid receptor; experiment: Agonist activity at human delta opioid receptor expressed in CHO cell membranes assessed as stimulation of [35S]GTPgammaS binding incubated for 2 hrs by scintillation counting method relative to SNC80; assay type: functional; settings: Membrane
[9] = target: T3, Kappa-type opioid receptor; experiment: Agonist activity at human kappa opioid receptor expressed in CHO cell membranes assessed as stimulation of [35S]GTPgammaS binding incubated for 2 hrs by scintillation counting method; assay type: functional, Membrane
[10] = target: T3, Kappa-type opioid receptor; experiment: Agonist activity at human kappa opioid receptor expressed in CHO cell membranes assessed as stimulation of [35S]GTPgammaS binding incubated for 2 hrs by scintillation counting method relative to U-69593; assay type: functional; settings: Membrane
Mu-type opioid receptor [11] = target: T1, Mu-type opioid receptor; experiment: Agonist activity at human mu opioid receptor expressed in CHO cell membranes assessed as stimulation of [35S]GTPgammaS binding at 10 uM incubated for 2 hrs by scintillation counting method relative to DAMGO; design: species or system Membrane

T1 sequence (P35372 whole entry): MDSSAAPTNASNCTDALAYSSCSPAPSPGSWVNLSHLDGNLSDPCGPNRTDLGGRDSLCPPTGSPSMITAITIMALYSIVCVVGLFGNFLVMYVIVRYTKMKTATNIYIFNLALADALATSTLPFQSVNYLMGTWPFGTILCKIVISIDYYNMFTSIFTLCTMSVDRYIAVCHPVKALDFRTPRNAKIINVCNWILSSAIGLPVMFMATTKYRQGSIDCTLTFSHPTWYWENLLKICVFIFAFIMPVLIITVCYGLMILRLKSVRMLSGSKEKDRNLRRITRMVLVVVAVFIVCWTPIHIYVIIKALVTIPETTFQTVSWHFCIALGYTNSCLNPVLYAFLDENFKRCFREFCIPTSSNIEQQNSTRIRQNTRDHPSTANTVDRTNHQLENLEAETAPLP
mu opioid receptor (MOR), sequence (P35372 whole entry): as above
T3 sequence (P41145 whole entry): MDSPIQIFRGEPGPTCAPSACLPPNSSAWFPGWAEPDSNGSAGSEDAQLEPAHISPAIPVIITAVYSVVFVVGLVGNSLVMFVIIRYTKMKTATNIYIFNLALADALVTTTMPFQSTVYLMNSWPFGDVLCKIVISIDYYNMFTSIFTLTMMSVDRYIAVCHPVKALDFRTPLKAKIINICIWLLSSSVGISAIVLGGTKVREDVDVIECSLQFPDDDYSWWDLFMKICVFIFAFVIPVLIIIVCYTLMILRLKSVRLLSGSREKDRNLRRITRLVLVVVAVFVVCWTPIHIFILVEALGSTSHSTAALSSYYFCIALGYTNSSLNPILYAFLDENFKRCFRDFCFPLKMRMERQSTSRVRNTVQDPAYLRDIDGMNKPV
T2 sequence (P41143 whole entry): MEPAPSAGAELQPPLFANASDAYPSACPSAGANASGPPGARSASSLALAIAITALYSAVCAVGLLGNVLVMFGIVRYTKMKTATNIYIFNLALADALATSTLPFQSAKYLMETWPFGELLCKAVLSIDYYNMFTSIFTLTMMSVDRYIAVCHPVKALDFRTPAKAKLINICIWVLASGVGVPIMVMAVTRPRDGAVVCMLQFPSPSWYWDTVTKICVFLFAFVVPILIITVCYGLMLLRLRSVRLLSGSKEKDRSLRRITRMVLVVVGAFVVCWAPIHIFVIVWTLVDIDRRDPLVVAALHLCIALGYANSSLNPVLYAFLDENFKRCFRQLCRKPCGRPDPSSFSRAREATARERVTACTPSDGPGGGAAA

CN(C(=O)CCc1ccccc1)[C@@H]1C[C@]23CCN(CC4CC4)[C@H](Cc4ccc(O)cc42)[C@]32CC[C@@H]1O2
Ki (Mu-type opioid receptor [1]): 1.46 nM | Ki [2]: 20.5 nM | Ki [3]: 0.332 nM | Ratio Ki (Homo sapiens [4]): 4.4 | Ratio Ki (Homo sapiens [5]): 61.7 | EC50 (Mu-type opioid receptor [6]): 5.61 nM | Emax at 2 h (mu opioid receptor (MOR)): 33.4% | EC50 [7]: 21.4 nM | Emax ([8]; filed as agonist): 85.2% | EC50 [9]: 9.95 nM | Emax ([10]; filed as partial agonist): 58.5%

O=C(CCc1ccccc1)N[C@H]1C[C@]23CCN(CC4CC4)[C@H](Cc4ccc(O)cc42)[C@]32CC[C@@H]1O2
Ki (Mu-type opioid receptor [1]): 1.08 nM | Ki [2]: 5.14 nM | Ki [3]: 2.36 nM | Ratio Ki (Homo sapiens [4]): 0.46 | Ratio Ki (Homo sapiens [5]): 2.2 | EC50 (Mu-type opioid receptor [6]): 9.35 nM | Emax at 2 h (mu opioid receptor (MOR)): 11.4% | EC50 [7]: 54.7 nM | Emax ([8]; filed as agonist): 111% | EC50 [9]: 6.32 nM | Emax ([10]; filed as partial agonist): 50.3%

CN(C(=O)c1ccccc1)[C@@H]1C[C@]23CCN(CC4CC4)[C@H](Cc4ccc(O)cc42)[C@]32CC[C@@H]1O2
Ki (Mu-type opioid receptor [1]): 1.42 nM | Ki [2]: 23.2 nM | Ki [3]: 0.256 nM | Ratio Ki (Homo sapiens [4]): 5.5 | Ratio Ki (Homo sapiens [5]): 90.6 | EC50 (Mu-type opioid receptor [6]): 4.7 nM | Emax at 2 h (mu opioid receptor (MOR)): 47.5% | EC50 [7]: 0.171 nM | Emax [8]: 27.7% | EC50 [9]: 1.59 nM | Emax [10]: 34.6%

O=C(N[C@@H]1C[C@]23CCN(CC4CC4)[C@H](Cc4ccc(O)cc42)[C@]32CC[C@@H]1O2)c1ccccc1
Ki (Mu-type opioid receptor [1]): 0.165 nM | Ki [2]: 1.67 nM | Ki [3]: 0.14 nM | Ratio Ki (Homo sapiens [4]): 1.2 | Ratio Ki (Homo sapiens [5]): 11.9 | EC50 (Mu-type opioid receptor [6]): 2.72 nM | Emax at 2 h (mu opioid receptor (MOR)): 47.2% | EC50 [7]: 2.86 nM | Emax ([8]; filed as agonist): 106% | EC50 [9]: 1.82 nM | Emax ([10]; filed as partial agonist): 87.7%

O=C(N[C@H]1C[C@]23CCN(CC4CC4)[C@H](Cc4ccc(O)cc42)[C@]32CC[C@@H]1O2)c1ccccc1
Ki (Mu-type opioid receptor [1]): 0.564 nM | Ki [2]: 5.68 nM | Ki [3]: 10.6 nM | Ratio Ki (Homo sapiens [4]): 0.05 | Ratio Ki (Homo sapiens [5]): 0.54 | EC50 [7]: 51.9 nM | Emax ([8]; filed as agonist): 97.4% | EC50 [9]: 32.4 nM | Emax [10]: 23.7% | Activity (Mu-type opioid receptor [11]): 10.2%

O=C(CCc1ccccc1)N[C@@H]1C[C@]23CCN(CC4CC4)[C@H](Cc4ccc(O)cc42)[C@]32CC[C@@H]1O2
Ki (Mu-type opioid receptor [1]): 0.126 nM | Ki [2]: 5.18 nM | Ki [3]: 0.197 nM | Ratio Ki (Homo sapiens [4]): 0.64 | Ratio Ki (Homo sapiens [5]): 26.3 | EC50 (Mu-type opioid receptor [6]): 12.7 nM | Emax at 2 h (mu opioid receptor (MOR)): 10.2% | EC50 [7]: 112 nM | Emax ([8]; filed as agonist): 104% | EC50 [9]: 5.31 nM | Emax ([10]; filed as partial agonist): 75.4%

O=C(Cc1ccccc1)N[C@H]1C[C@]23CCN(CC4CC4)[C@H](Cc4ccc(O)cc42)[C@]32CC[C@@H]1O2
Ki (Mu-type opioid receptor [1]): 3.81 nM | Ki [2]: 4.98 nM | Ki [3]: 1.71 nM | Ratio Ki (Homo sapiens [4]): 2.2 | Ratio Ki (Homo sapiens [5]): 2.9 | EC50 (Mu-type opioid receptor [6]): 5.37 nM | Emax at 2 h (mu opioid receptor (MOR)): 8.7% | EC50 [7]: 3.83 nM | Emax ([8]; filed as agonist): 101% | EC50 [9]: 13.4 nM | Emax [10]: 35.8%

O=C(Cc1ccccc1)N[C@@H]1C[C@]23CCN(CC4CC4)[C@H](Cc4ccc(O)cc42)[C@]32CC[C@@H]1O2
Ki (Mu-type opioid receptor [1]): 0.267 nM | Ki [2]: 0.522 nM | Ki [3]: 0.193 nM | Ratio Ki (Homo sapiens [4]): 1.4 | Ratio Ki (Homo sapiens [5]): 2.7 | EC50 (Mu-type opioid receptor [6]): 9.43 nM | Emax at 2 h (mu opioid receptor (MOR)): 28.2% | EC50 [7]: 5.96 nM | Emax ([8]; filed as agonist): 85.3% | EC50 [9]: 3.11 nM | Emax ([10]; filed as partial agonist): 68.4%

CN(C(=O)Cc1ccccc1)[C@@H]1C[C@]23CCN(CC4CC4)[C@H](Cc4ccc(O)cc42)[C@]32CC[C@@H]1O2
Ki (Mu-type opioid receptor [1]): 1.74 nM | Ki [2]: 19.5 nM | Ki [3]: 0.278 nM | Ratio Ki (Homo sapiens [4]): 6.3 | Ratio Ki (Homo sapiens [5]): 70.1 | EC50 (Mu-type opioid receptor [6]): 7.11 nM | Emax at 2 h (mu opioid receptor (MOR)): 40.3% | EC50 [7]: 43.6 nM | Emax [8]: 39.7% | EC50 [9]: 8.44 nM | Emax ([10]; filed as partial agonist): 88.6%
